According to article PMC8854719, “Phase 1A/1B dose-escalation and -expansion study to evaluate the safety, pharmacokinetics, food effects and antitumor activity of pamiparib in advanced solid tumours” (British Journal of Cancer, 2021):

Assay: Safety and tolerability: adverse events, dose-limiting toxicities, MTD, RP2D (Phase 1A/1B)
Type: in vivo
Method: This was an open-label, Phase 1, dose-escalation/dose-expansion study, conducted across six study centres in Australia. The dose-escalation phase evaluated twice-daily (BID) and once-daily (QD) dosing, and the dose-expansion phase evaluated the BID RP2D from the dose-escalation phase and food effects (Fig. 1). The food-effects cohort comprised two sequences: fast followed by fed (sequence 1) and fed followed by fast (sequence 2). […] The decision to proceed to the next dose cohort was determined by the Safety Monitoring Committee and followed a modified 3 + 3 escalation scheme. […] When ≥2 DLTs occurred in the first 23 days of a dose level, the next lower dose level was declared the MTD. Safety was monitored and DLTs were assessed in all dose cohorts. […] The food-effects cohort investigated the effects of food on the PK of pamiparib in patients with advanced solid tumours.
The QD dosing regimen was added as an amendment to the protocol with the purpose of exploring the feasibility of a more convenient regimen.
Safety and tolerability were assessed throughout the study by monitoring adverse events (AEs), serious AEs, clinical laboratory measurements and physical examinations. Adverse events were categorised according to their severity (National Cancer Institute Common Terminology Criteria for Adverse Events v4.03) and relationship to the study treatment.

## C[C@]12CCCN1CC1=NNC(=O)c3cc(F)cc4[nH]c2c1c34 [pamiparib]
40 mg BID (n = 6)
  Treatment-emergent AE: Grade 3 or higher: 3 (50.0) n (%)
  Treatment-emergent AE: Leading to death: 0 (0.0) n (%)
  Treatment-emergent AE: Leading to dose interruption: 4 (66.7) n (%)
  Treatment-emergent AE: Leading to dose modification: 4 (66.7) n (%)
  Treatment-emergent AE: Leading to dose reduction: 0 (0.0) n (%)
  Treatment-emergent AE: Leading to treatment discontinuation: 1 (16.7) n (%)
  Treatment-emergent AE: Serious: 2 (33.3) n (%)
  Treatment-related AE: 6 (100.0) n (%)
  Treatment-related AE: Grade 3 or higher: 2 (33.3) n (%)
  Treatment-related AE: Leading to death: 0 (0.0) n (%)
  Treatment-related AE: Leading to dose interruption: 3 (50.0) n (%)
  Treatment-related AE: Leading to dose modification: 3 (50.0) n (%)
  Treatment-related AE: Leading to dose reduction: 0 (0.0) n (%)
  Treatment-related AE: Leading to treatment discontinuation: 0 (0.0) n (%)
  Treatment-related AE: Serious: 0 (0.0) n (%)
  Upper respiratory tract infection, AE of any grade: 1 (16.7) n (%)
  Urinary tract infection, AE of any grade: 0 (0.0) n (%)
  Vomiting, AE of any grade: 5 (83.3) n (%)
40 mg BID, n = 1
  Dose-limiting toxicities observed (description): Grade 2 nausea
60 mg BID
  Incidence of nausea: 54.5%
60 mg BID (n = 11)
  Abdominal pain, AE of any grade: 3 (27.3) n (%)
  Anaemia, AE of any grade: 4 (36.4) n (%)
  Ascites, AE of any grade: 0 (0.0) n (%)
  Back pain, AE of any grade: 1 (9.1) n (%)
  Constipation, AE of any grade: 1 (9.1) n (%)
  Cough, AE of any grade: 1 (9.1) n (%)
  Decreased appetite, AE of any grade: 1 (9.1) n (%)
  Diarrhoea, AE of any grade: 4 (36.4) n (%)
  Dose-limiting toxicity: 0 (0.0) n (%)
  Dyspnoea, AE of any grade: 1 (9.1) n (%)
  Fatigue, AE of any grade: 2 (18.2) n (%)
  Headache, AE of any grade: 0 (0.0) n (%)
  Hypoalbuminemia, AE of any grade: 2 (18.2) n (%)
  Hypomagnesemia, AE of any grade: 0 (0.0) n (%)
  Hypophosphatemia, AE of any grade: 1 (9.1) n (%)
  Increased AST, AE of any grade: 1 (9.1) n (%)
  Muscle spasms, AE of any grade: 1 (9.1) n (%)
  Nausea, AE of any grade: 6 (54.5) n (%)
  Neutropenia, AE of any grade: 0 (0.0) n (%)
  Non-cardiac chest pain, AE of any grade: 1 (9.1) n (%)
  Pain in extremity, AE of any grade: 1 (9.1) n (%)
  Peripheral sensory neuropathy, AE of any grade: 1 (9.1) n (%)
  Pleural effusion, AE of any grade: 2 (18.2) n (%)
  Pyrexia, AE of any grade: 0 (0.0) n (%)
  Treatment-emergent AE: 11 (100.0) n (%)
  Treatment-emergent AE: Grade 3 or higher: 9 (81.8) n (%)
  Treatment-emergent AE: Leading to death: 3 (27.3) n (%)
  Treatment-emergent AE: Leading to dose interruption: 8 (72.7) n (%)
  Treatment-emergent AE: Leading to dose modification: 8 (72.7) n (%)
  Treatment-emergent AE: Leading to dose reduction: 0 (0.0) n (%)
  Treatment-emergent AE: Leading to treatment discontinuation: 0 (0.0) n (%)
  Treatment-emergent AE: Serious: 9 (81.8) n (%)
  Treatment-related AE: 7 (63.6) n (%)
  Treatment-related AE: Grade 3 or higher: 1 (9.1) n (%)
  Treatment-related AE: Leading to death: 0 (0.0) n (%)
  Treatment-related AE: Leading to dose interruption: 2 (18.2) n (%)
  Treatment-related AE: Leading to dose modification: 2 (18.2) n (%)
  Treatment-related AE: Leading to dose reduction: 0 (0.0) n (%)
  Treatment-related AE: Leading to treatment discontinuation: 0 (0.0) n (%)
  Treatment-related AE: Serious: 1 (9.1) n (%)
  Upper respiratory tract infection, AE of any grade: 1 (9.1) n (%)
  Urinary tract infection, AE of any grade: 3 (27.3) n (%)
  Vomiting, AE of any grade: 4 (36.4) n (%)
80 mg BID
  Incidence of nausea: 80.0%
80 mg BID (n = 10)
  Abdominal pain, AE of any grade: 2 (20.0) n (%)
  Anaemia, AE of any grade: 4 (40.0) n (%)
